Like-named read-outs stand apart in the source and are kept apart here.
What was measured:
[1] = in vivo; conditions: mouse, ip
[2] = tested on: histamine; experiment: animal or person; type: in vivo, guinea-pigs; conditions: Cavia porcellus, 0.5 h, read-out: Histaminic shock ED50
[3] = tested on: histamine; experiment: Bronchospasm by inhalation of a histamine solution; type: in vivo, guinea-pigs; conditions: for ED50: Cavia porcellus, 0.5 h, read-out: Bronchospasm ED50
Procedure: F-Bronchospasm by inhalation of a histamine solution
Guinea-pigs are placed in a closed chamber into which histamine is introduced as an aerosol, and only those which show very distinct signs of asphyxia within four minutes are selected.
The substance to be studied is administered to groups of guinea-pigs thirty minutes before a further period in the chamber in order to check the resistance to histamine. A guinea-pig is considered to be protected if it resists the histamine aerosol for ten minutes without showing signs of asphyxia.
A 50% effective dose is calculated from the results obtained.

[4] = tested on: peritoneal pain caused by phenylbenzoquinone (PBQ); experiment: Peripheral analgesic activity (phenylbenzoquinone peritoneal pain); type: in vivo, mice; conditions: Mus musculus, 0.5 h, read-out: Peripheral analgesic activity ED50
Source text: E-Peripheral analgesic activity
A peritoneal pain is caused in mice by the intraperitoneal injection of phenylbenzoquinone (PBQ). The test tries to measure the decrease in the pain syndrome, characterized by an abdominal twisting movement, which is caused by injecting the test product thirty minutes before the administration of PBQ.

[5] = tested on: mice; experiment: Muscle-relaxing action (traction test); type: in vivo; conditions: Mus musculus, ip, read-out: Muscle-relaxing action - Traction test ED50
Source text: C-Muscle-relaxing action (traction test)
This test assesses the presence or absence of redressments in a mouse brought up to a horizontal wire with its front paws.
The number of mice which are unable to grip the wire with one of their back paws within five seconds are noted.
(§1) A 50% effective dose can be calculated from the results obtained.

[6] = tested on: sleep induced by pentobarbital; experiment: animal or person; type: in vivo, mice; conditions: ip
[7] = tested on: mice; experiment: Exploration behavior (hole-board); type: in vivo; conditions: Mus musculus, ip, 0.5 h, read-out: Exploration behavior ED50
Source text: Thirty minutes after the intraperitoneal administration of the derivatives according to the invention, each mouse is placed on an automated hole-board for five minutes and the number of holes explored is noted every minute.
as §1

[8] = tested on: mice; experiment: Study of the spontaneous motility (motor activity), photoelectric actimeter; type: in vivo; conditions: mouse, at 25 mg.kg^-1 i.p.

SMILES | LD50 [1] | ED50 ([2]; po) | ED50 ([2]; ip) | ED50 ([3]; ip) | ED50 ([4]; ip) | ED50 ([3]; po) | further results
O=c1n(CCN2CCN(CCOC(c3ccccc3)c3ccccc3)CC2)c2ccccc2n1Cc1ccccc1 [Derivative 32] | 400 mg/kg | 2.3 mg/kg | – | – | – | – | Bronchospasm ([3]; guinea pig, in vivo, po): 33%
O=C1CCC(=O)N1CCN1CCN(CCOC(c2ccccc2)c2ccccc2)CC1 [Derivative 22] | 146 mg/kg | – | 3.25 mg/kg | 3.96 mg/kg | – | – | ED50 ([4]; po): 35 mg/kg
O=C1c2ccccc2C(=O)N1CCCCN1CCN(CCOC(c2ccccc2)c2ccccc2)CC1 [Derivative 19] | 133 mg/kg | 2.2 mg/kg | – | – | 1.56 mg/kg | 5.34 mg/kg | –
CS(=O)(=O)O.CS(=O)(=O)O.O=C1c2ccccc2C(=O)N1CCN1CCN(CCOC(c2ccccc2)c2ccccc2)CC1 [Derivative 2, 1-[2-(Benzhydryloxy)ethyl]-4-[2-(phthalimido)-ethyl]piperazine dimethanesulfonate] | 211 mg/kg | – | 2.03 mg/kg | 3.67 mg/kg | 3.12 mg/kg | – | –
CC(C)(C)c1ccc(C(O)CCCN2CCC(C(O)(c3ccccc3)c3ccccc3)CC2)cc1 (stereo not shown) [Terfenadine, reference compound] | 100 mg/kg | – | – | – | 3.1 mg/kg | – | ED50 [5]: 31 mg/kg; ED50 ([6]; Mus musculus, read-out: Interaction with pentobarbital ED50): 25 mg/kg; ED50 [7]: 37 mg/kg; Motor activity [8]: Significant decrease
O=C(NCCN1CCN(CCOC(c2ccccc2)c2ccccc2)CC1)c1ccccc1[N+](=O)[O-] [Derivative 49] | 131 mg/kg | – | – | – | – | 3.12 mg/kg | Interaction with pentobarbital ([6]; mouse, in vivo): no interaction; ED50 ([4]; sc): 2.6 mg/kg

From patent US4908365A, “Benzhydryloxyethylpiperazine derivatives, processes for their preparation and pharmaceutical compositions in which they are present” (priority 1986, dated 1990)
